Data published in PubChem BioAssay (NCI).
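How tested: cells in 96-well plates exposed to compound for 48 hours at five concentrations. TGI is the concentration that stops growth completely.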

Key:
Test in all cases: NCI tumour cell line growth inhibition, 48 h
786-0 renal = system: 786-0 renal
A498 renal = system: A498 renal
A549 NSCLC = system: A549 NSCLC
ACHN renal = system: ACHN renal
BT-549 breast = system: BT-549 breast
CAKI-1 renal = system: CAKI-1 renal
CCRF-CEM leukemia = system: CCRF-CEM leukemia
COLO 205 colon = system: COLO 205 colon
DU-145 prostate = system: DU-145 prostate
EKVX NSCLC = system: EKVX NSCLC
HCC-2998 colon = system: HCC-2998 colon
HCT-116 colon = system: HCT-116 colon
HCT-15 colon = system: HCT-15 colon
HL-60(TB) leukemia = system: HL-60(TB) leukemia
HOP-62 NSCLC = system: HOP-62 NSCLC
HOP-92 NSCLC = system: HOP-92 NSCLC
HS 578T breast = system: HS 578T breast
HT29 colon = system: HT29 colon
IGROV1 ovarian = system: IGROV1 ovarian
K-562 leukemia = system: K-562 leukemia
KM12 colon = system: KM12 colon
LOX IMVI melanoma = system: LOX IMVI melanoma
M14 melanoma = system: M14 melanoma
MALME-3M melanoma = system: MALME-3M melanoma
MCF7 breast = system: MCF7 breast
MDA-MB-231 breast = system: MDA-MB-231 breast
MDA-MB-435 = system: MDA-MB-435
MDA-N = system: MDA-N
MOLT-4 leukemia = system: MOLT-4 leukemia
NCI-H226 lung = system: NCI-H226 lung
NCI-H23 lung = system: NCI-H23 lung
NCI-H460 lung = system: NCI-H460 lung
NCI-H522 lung = system: NCI-H522 lung
NCI/ADR-RES ovarian = system: NCI/ADR-RES ovarian
OVCAR-3 ovarian = system: OVCAR-3 ovarian
OVCAR-4 ovarian = system: OVCAR-4 ovarian
OVCAR-5 ovarian = system: OVCAR-5 ovarian
OVCAR-8 ovarian = system: OVCAR-8 ovarian
PC-3 prostate = system: PC-3 prostate
RXF 393 renal = system: RXF 393 renal
SF-268 CNS = system: SF-268 CNS
SF-295 CNS = system: SF-295 CNS
SK-MEL-2 melanoma = system: SK-MEL-2 melanoma
SK-MEL-28 melanoma = system: SK-MEL-28 melanoma
SK-MEL-5 melanoma = system: SK-MEL-5 melanoma
SK-OV-3 ovarian = system: SK-OV-3 ovarian
SN12C renal = system: SN12C renal
SNB-19 CNS = system: SNB-19 CNS
SR leukemia = system: SR leukemia
SW-620 colon = system: SW-620 colon
T-47D breast = system: T-47D breast
TK-10 renal = system: TK-10 renal
U251 CNS = system: U251 CNS
UACC-257 melanoma = system: UACC-257 melanoma
UACC-62 melanoma = system: UACC-62 melanoma
UO-31 renal = system: UO-31 renal
RPMI-8226 leukemia = system: RPMI-8226 leukemia
SNB-75 CNS = system: SNB-75 CNS

## Oc1cccc(-c2cn3cc(Cl)ccc3n2)c1
786-0 renal
  TGI: > 100 µM
A498 renal
  TGI: > 100 µM
A549 NSCLC
  TGI: > 100 µM
ACHN renal
  TGI: > 100 µM
BT-549 breast
  TGI: > 100 µM
CAKI-1 renal
  TGI: > 100 µM
CCRF-CEM leukemia
  TGI: 81.5 µM
COLO 205 colon
  TGI: > 100 µM
DU-145 prostate
  TGI: > 100 µM
EKVX NSCLC
  TGI: 83.5 µM
HCC-2998 colon
  TGI: > 100 µM
HCT-116 colon
  TGI: > 100 µM
HCT-15 colon
  TGI: > 100 µM
HL-60(TB) leukemia
  TGI: 56.2 µM
HOP-62 NSCLC
  TGI: > 100 µM
HOP-92 NSCLC
  TGI: > 100 µM
HS 578T breast
  TGI: > 100 µM
HT29 colon
  TGI: > 100 µM
IGROV1 ovarian
  TGI: > 100 µM
K-562 leukemia
  TGI: > 100 µM
KM12 colon
  TGI: > 100 µM
LOX IMVI melanoma
  TGI: > 100 µM
M14 melanoma
  TGI: > 100 µM
MALME-3M melanoma
  TGI: > 100 µM
MCF7 breast
  TGI: > 100 µM
MDA-MB-231 breast
  TGI: > 100 µM
MDA-MB-435
  TGI: > 100 µM
MDA-N
  TGI: > 100 µM
MOLT-4 leukemia
  TGI: > 100 µM
NCI-H226 lung
  TGI: > 100 µM
NCI-H23 lung
  TGI: > 100 µM
NCI-H460 lung
  TGI: > 100 µM
NCI-H522 lung
  TGI: 43.3 µM
NCI/ADR-RES ovarian
  TGI: > 100 µM
OVCAR-3 ovarian
  TGI: > 100 µM
OVCAR-4 ovarian
  TGI: > 100 µM
OVCAR-5 ovarian
  TGI: > 100 µM
OVCAR-8 ovarian
  TGI: > 100 µM
PC-3 prostate
  TGI: > 100 µM
RXF 393 renal
  TGI: 86 µM
SF-268 CNS
  TGI: > 100 µM
SF-295 CNS
  TGI: > 100 µM
SK-MEL-2 melanoma
  TGI: > 100 µM
SK-MEL-28 melanoma
  TGI: > 100 µM
SK-MEL-5 melanoma
  TGI: 35.9 µM
SK-OV-3 ovarian
  TGI: > 100 µM
SN12C renal
  TGI: > 100 µM
SNB-19 CNS
  TGI: > 100 µM
SR leukemia
  TGI: > 100 µM
SW-620 colon
  TGI: > 100 µM
T-47D breast
  TGI: 48.2 µM
TK-10 renal
  TGI: > 100 µM
U251 CNS
  TGI: > 100 µM
UACC-257 melanoma
  TGI: 77.5 µM
UACC-62 melanoma
  TGI: > 100 µM
UO-31 renal
  TGI: > 100 µM

## CC1=NNC(N)=N/C1=C\C(Sc1ccc(Cl)cc1)c1ccc(Cl)cc1Cl (stereo not drawn)
786-0 renal
  TGI: 75.9 µM
A498 renal
  TGI: 42.8 µM
A549 NSCLC
  TGI: 59.4 µM
ACHN renal
  TGI: 29.1 µM
BT-549 breast
  TGI: 55.7 µM
CAKI-1 renal
  TGI: > 67.1 µM
CCRF-CEM leukemia
  TGI: 7.62 µM
COLO 205 colon
  TGI: 50.4 µM
DU-145 prostate
  TGI: 61.7 µM
EKVX NSCLC
  TGI: 32.7 µM
HCC-2998 colon
  TGI: 17 µM
HCT-116 colon
  TGI: > 65 µM
HCT-15 colon
  TGI: 30.4 µM
HL-60(TB) leukemia
  TGI: 22.2 µM
HOP-62 NSCLC
  TGI: 57.8 µM
HOP-92 NSCLC
  TGI: > 50.5 µM
HS 578T breast
  TGI: 44.2 µM
HT29 colon
  TGI: 14.2 µM
IGROV1 ovarian
  TGI: 21.9 µM
K-562 leukemia
  TGI: 56.3 µM
KM12 colon
  TGI: 34.2 µM
LOX IMVI melanoma
  TGI: > 49.4 µM
M14 melanoma
  TGI: 31.8 µM
MALME-3M melanoma
  TGI: 28.8 µM
MCF7 breast
  TGI: 16.4 µM
MDA-MB-231 breast
  TGI: > 52.3 µM
MDA-MB-435
  TGI: > 76.6 µM
MDA-N
  TGI: > 71.5 µM
MOLT-4 leukemia
  TGI: > 100 µM
NCI-H226 lung
  TGI: 36.2 µM
NCI-H23 lung
  TGI: 29.4 µM
NCI-H460 lung
  TGI: 29.3 µM
NCI-H522 lung
  TGI: 18.6 µM
NCI/ADR-RES ovarian
  TGI: 39 µM
OVCAR-4 ovarian
  TGI: 44.6 µM
OVCAR-5 ovarian
  TGI: 36.7 µM
OVCAR-8 ovarian
  TGI: 31.7 µM
PC-3 prostate
  TGI: 26.4 µM
RPMI-8226 leukemia
  TGI: 61.2 µM
RXF 393 renal
  TGI: 50.9 µM
SF-268 CNS
  TGI: 33.2 µM
SF-295 CNS
  TGI: 52.9 µM
SK-MEL-2 melanoma
  TGI: 38 µM
SK-MEL-28 melanoma
  TGI: 55.7 µM
SK-MEL-5 melanoma
  TGI: 40.1 µM
SK-OV-3 ovarian
  TGI: 41.9 µM
SN12C renal
  TGI: 62.4 µM
SNB-19 CNS
  TGI: 32.8 µM
SNB-75 CNS
  TGI: 32.9 µM
SR leukemia
  TGI: > 100 µM
SW-620 colon
  TGI: 59.9 µM
T-47D breast
  TGI: 38.8 µM
TK-10 renal
  TGI: 45.9 µM
U251 CNS
  TGI: > 57.1 µM
UACC-257 melanoma
  TGI: 39.9 µM
UACC-62 melanoma
  TGI: > 51.9 µM
UO-31 renal
  TGI: 27 µM
